What all share (assay): Cytotoxicity assay of camptothecin derivative toxins (Example A')
Holding throughout (format): cell-based

The subject of assay [1] is human lung adenocarcinoma cell line NCI-H441. Conditions: read-out: IC50 (nM) NCI-H441. The method, then: (§1) The camptothecin derivatives of the Examples of the present application were serially diluted with DMSO and the corresponding cell culture medium, and were added into a white-walled 96-well plate. Tumor cells (human ovarian cancer cell line SK-OV-3; human colon cancer cell line HCT116; human lung adenocarcinoma cell line A549; human lung adenocarcinoma cell line NCI-H441; human oral epidermoid carcinoma cell line KB) in logarithmic growth phase were digested and adjusted to a density of approximately 3.33×10^4 cells/mL. The cells were plated at 90 µL/well on the white-walled 96-well plate that was pre-loaded with the samples, followed by incubation at 37° C. in a 5% CO2 incubator for 3 days. The growth inhibitory effect of the small molecule compounds on tumor cells was evaluated by the Cell Titer Turbo 2.0 Luminescent Cell Viability Assay (Damas life, RA-GL11). Relative light unit (RLU) values were read from the cell culture plates using a microplate reader. Experimental data were analyzed with GraphPad Prism 8.0 software to calculate IC50 values.

Assay [2] relates to human ovarian cancer cell line SK-OV-3. Conditions: read-out: IC50 (nM) SK-OV-3. The method, then:
as §1

In assay [3] the test system is human lung adenocarcinoma cell line A549. Conditions: read-out: IC50 (nM) A549. The procedure:
as §1

For assay [4], the system named is human colon cancer cell line HCT116. Particulars: read-out: IC50 (nM) HCT116. The method, then: as §1
[5] abbreviates: Homo sapiens, NCI-H441, 72 h, Example A', 3 days incubation.
Setting [6] is: Homo sapiens, SK-OV-3, 72 h, Example A', 3 days incubation.
Where [7] appears, read: Homo sapiens, A549, 72 h, Example A', 3 days incubation.
The mark [8] stands for this setting: Homo sapiens, HCT-116, 72 h, Example A', 3 days incubation.

Where two headings read alike, the source gives them in different places.

Usually IC50 stands for the concentration at which inhibition is half-maximal. Turning to `CC[C@@]1(O)C(=O)OCc2c1cc1n(c2=O)Cc2c-1nc1cc(F)c(C)cc1c2NCCO` [STI-F5, (S)-4-ethyl-8-fluoro-4-hydroxy-11-((2-hydroxyethyl)amino)-9-methyl-1,12-dihydro-14H-pyrano[3′,4′:6,7]indolizino[1,2-b]quinoline-3,14(4H)-dione], the IC50 stood at 32.3 nM in assay [1] (setting [5]), 16.9 nM in assay [2] (setting [6]), 387 nM in assay [3] (setting [7]) and 19 nM in assay [4] (setting [8]).
The matching figures for `CC[C@@]1(O)C(=O)OCc2c1cc1n(c2=O)Cc2c-1nc1cc(F)c(C)cc1c2NC/C=C/CO` [STI-F8, (S,E)-4-ethyl-8-fluoro-4-hydroxy-11-((4-hydroxybut-2-en-1-yl)amino)-9-methyl-1,12-dihydro-14H-pyrano[3′,4′:6,7]indolizino[1,2-b]quinoline-3,14(4H)-dione]: 24.9 nM, 12.3 nM, 278 nM and 11.4 nM.
As to `CC[C@@]1(O)C(=O)OCc2c1cc1n(c2=O)Cc2c-1nc1cc(F)c(C)cc1c2N1CCC(CO)CC1` [STI-F14, (S)-4-ethyl-8-fluoro-4-hydroxy-11-(4-(hydroxymethyl)piperidin-1-yl)-9-methyl-1,12-dihydro-14H-pyrano[3′,4′:6,7]indolizino[1,2-b]quinoline-3,14(4H)-dione], the IC50 in assay [1] (setting [5]) is 11.1 nM; in assay [3] (setting [7]), 156 nM; in assay [4] (setting [8]), 12.4 nM.
Take `CC[C@@]1(O)C(=O)OCc2c1cc1n(c2=O)Cc2c-1nc1cc(F)c(C)cc1c2N[C@H]1CC[C@H](CO)CC1` [STI-F15, (S)-4-ethyl-8-fluoro-4-hydroxy-11-(((1r,4S)-4-(hydroxymethyl)cyclohexyl)amino)-9-methyl-1,12-dihydro-14H-pyrano[3′,4′:6,7]indolizino[1,2-b]quinoline-3,14(4H)-dione]: the IC50 in assay [1] (Example A', 3 days incubation) is 50.9 nM; in assay [2] (Example A', 3 days incubation), 28.7 nM; in assay [3] (Example A', 3 days incubation), 542 nM; in assay [4] (Example A', 3 days incubation), 22.6 nM.
Turning to `CC[C@@]1(O)C(=O)OCc2c1cc1n(c2=O)Cc2c-1nc1cc(F)c(C)cc1c2NCCCCCO` [STI-F17, (S)-4-ethyl-8-fluoro-4-hydroxy-11-((5-hydroxypentyl)amino)-9-methyl-1,12-dihydro-14H-pyrano[3′,4′:6,7]indolizino[1,2-b]quinoline-3,14(4H)-dione], the IC50 in assay [1] (setting [5]) stood at 28.7 nM; in assay [2] (setting [6]), 20 nM; in assay [3] (setting [7]), 377 nM; in assay [4] (setting [8]), 17.2 nM.
Regarding `CC[C@@]1(O)C(=O)OCc2c1cc1n(c2=O)Cc2c-1nc1cc3c(cc1c2NCCCCO)OCO3` [STI-F18, (S)-7-ethyl-7-hydroxy-14-((4-hydroxybutyl)amino)-10,13-dihydro-11H-[1,3]dioxolo[4,5-g]pyrano[3′,4′:6,7]indolizino[1,2-b]quinoline-8,11(7H)-dione], the half-inhibitory concentration (IC50) in assay [1] (Homo sapiens, NCI-H441, 72 h) was 42 nM; in assay [2] (Homo sapiens, SK-OV-3, 72 h), 44.6 nM; in assay [3] (Homo sapiens, A549, 72 h), 454 nM; in assay [4] (Homo sapiens, HCT-116, 72 h), 58.7 nM.
With `CCCCCc1c2c(nc3cc(F)c(NC(=O)CO)cc13)-c1cc3c(c(=O)n1C2)COC(=O)[C@]3(O)CC` [STI-G5, (S)—N-(4-ethyl-8-fluoro-4-hydroxy-3,14-dioxo-11-pentyl-3,4,12,14-tetrahydro-1H-pyrano[3′,4′:6,7]indolizino[1,2-b]quinolin-9-yl)-2-hydroxyacetamide], the IC50 worked out at 2.22 nM in assay [1] (setting [5]) and 10.3 nM in assay [2] (setting [6]).
